Experimental data from ChEMBL document CHEMBL1201862, “PubChem BioAssay data set” (2004).
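In this assay, cells in 96-well plates receive the compound at five concentrations for 48 hours. Endpoints are linearly interpolated between the surrounding concentrations. Abbreviation: GI50, concentration required for 50% inhibition of growth.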 Activity calls are given as the source filed them. Cut-off read from the data, not from the text of the source: active = GI50 up to about 1.1 µM and inactive = higher.

Legend:
Experiment in all cases: DTP human tumour cell line panel, 48 h
CAKI-1 = tested on: CAKI-1
NCI-H522 = tested on: NCI-H522
RPMI-8226 = tested on: RPMI-8226
HL-60 = tested on: HL-60
CCRF-CEM = tested on: CCRF-CEM
LOX IMVI = tested on: LOX IMVI
A498 = tested on: A498
SR = tested on: SR
SW-620 = tested on: SW-620
MOLT-4 = tested on: MOLT-4
SK-MEL-5 = tested on: SK-MEL-5
SF-295 = tested on: SF-295
SK-OV-3 = tested on: SK-OV-3
IGROV-1 = tested on: IGROV-1
K562 = tested on: K562
OVCAR-8 = tested on: OVCAR-8
SK-MEL-28 = tested on: SK-MEL-28
COLO 205 = tested on: COLO 205
HOP-92 = tested on: HOP-92
RXF 393 = tested on: RXF 393
A549 = tested on: A549
DMS-273 = tested on: DMS-273
HOP-18 = tested on: HOP-18
UO-31 = tested on: UO-31
TK-10 = tested on: TK-10
DMS-114 = tested on: DMS-114
SNB-19 = tested on: SNB-19
ACHN = tested on: ACHN
HCT-116 = tested on: HCT-116
NCI-H226 = tested on: NCI-H226
M19-MEL = tested on: M19-MEL
M14 = tested on: M14
LXFL 529 = tested on: LXFL 529
UACC-62 = tested on: UACC-62
Malme-3M = tested on: Malme-3M
DLD-1 = tested on: DLD-1
SNB-78 = tested on: SNB-78
KM-20L2 = tested on: KM-20L2
HCT-15 = tested on: HCT-15

SMILES | GI50 (CAKI-1) | GI50 (NCI-H522) | GI50 (RPMI-8226) | GI50 (HL-60) | GI50 (CCRF-CEM) | GI50 (LOX IMVI) | GI50 (A498) | GI50 (SR) | GI50 (SK-MEL-5) | GI50 (SK-OV-3) | GI50 (IGROV-1) | GI50 (K562) | GI50 (OVCAR-8) | GI50 (COLO 205) | GI50 (DMS-273) | GI50 (HOP-18) | GI50 (UO-31) | other results
Cc1ccc2nc3c(Cl)c(C)c(=O)cc-3sc2c1 | > 10 µM (inactive) | 35.3 µM (inactive) | 23 µM (inactive) | 26.4 µM (inactive) | 7.18 µM (inactive) | 42.1 µM (inactive) | > 100 µM (inactive) | > 10 µM (inactive) | 60.3 µM (inactive) | > 10 µM (inactive) | > 10 µM (inactive) | 26.9 µM (inactive) | 51.1 µM (inactive) | > 10 µM (inactive) | 76 µM (inactive) | > 10 µM (inactive) | 52.5 µM (inactive) | GI50 (SW-620): 83.4 µM (inactive); GI50 (MOLT-4): 10.7 µM (inactive); GI50 (SF-295): 41.2 µM (inactive); GI50 (SK-MEL-28): > 10 µM (inactive); GI50 (HOP-92): 64 µM (inactive); GI50 (RXF 393): 21.5 µM (inactive); GI50 (A549): 70.5 µM (inactive)
NC(CCC(=O)NC(CSC(=O)N(O)c1ccc(Br)cc1)C(=O)NCC(=O)O)C(=O)O (stereo unspecified) | 70.3 µM (inactive) | > 100 µM (inactive) | 66.4 µM (inactive) | > 100 µM (inactive) | > 100 µM (inactive) | 61.5 µM (inactive) | > 100 µM (inactive) | 81.7 µM (inactive) | > 100 µM (inactive) | 29.2 µM (inactive) | > 100 µM (inactive) | 76.2 µM (inactive) | > 100 µM (inactive) | > 100 µM (inactive) | > 100 µM (inactive) | 38.2 µM (inactive) | 90.4 µM (inactive) | GI50 (TK-10): > 100 µM (inactive); GI50 (DMS-114): > 100 µM (inactive); GI50 (SNB-19): > 100 µM (inactive); GI50 (ACHN): 25.1 µM (inactive); GI50 (HCT-116): 88.5 µM (inactive); GI50 (NCI-H226): > 100 µM (inactive); GI50 (M19-MEL): > 100 µM (inactive); GI50 (M14): 30 µM (inactive); GI50 (LXFL 529): 46.9 µM (inactive); GI50 (UACC-62): > 100 µM (inactive); GI50 (Malme-3M): > 100 µM (inactive); GI50 (DLD-1): 86.5 µM (inactive); GI50 (SNB-78): > 100 µM (inactive); GI50 (KM-20L2): 35.2 µM (inactive); GI50 (HCT-15): 77.6 µM
